Among the data in US11904020B2, “Bicyclic peptide ligands specific for TREM2” (Bicycle Tx Limited, priority 2021, dated 2024) are EC50 and Kd values, retold here.

For one assay, the target named is T1, TREM2 receptor (Homo sapiens, UniProt Q9NZC2).
T1 construct: Both parental (TREM2 expressing) and isogenic TREM2 KO iPSC macrophages were plated; endogenous in cells; host or cells: human iPSC-derived macrophages (parental, TREM2 expressing)
T1 sequence (Q9NZC2 19-230): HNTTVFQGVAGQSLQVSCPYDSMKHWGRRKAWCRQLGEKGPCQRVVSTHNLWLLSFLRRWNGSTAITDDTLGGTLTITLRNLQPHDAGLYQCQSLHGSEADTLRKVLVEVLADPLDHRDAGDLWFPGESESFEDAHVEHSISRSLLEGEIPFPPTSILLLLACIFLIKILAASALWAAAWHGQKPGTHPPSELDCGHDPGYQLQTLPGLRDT
The assay can be described thus: pSYK Homogenous Time Resolved Fluorescence (HTRF) assay in iPSC macrophages. The settings on record: human iPSC macrophages, 5 mins stimulation, phospho (Tyr 525/526) SYK; NB = no binding; read-out: pSYK. It is filed as cell-based. As for the experimental part: Quantitative assessment of total and phospho (Tyr 525/526) SYK was performed on iPSC macrophages using CisBio total and phospho-SYK HTRF kits (catalogue numbers 64SYKTPGG and 64SYKY525-PEG respectively). Human iPSC macrophage precursors derived from embryoid bodies were plated in 96 well plates (Perkin Elmer Cell Carrier ultra, black walled plates, #6055800) at a density of 40 k cells per well in 100 μl macrophage media (XVIVO15 (Lonza, #BE04-418F), 1% Penicillin-Streptomycin (Gibco, #15140-122), 1% GlutaMAX™ Supplement (Gibco, #35050-038), 0.1% M-CSF (Invitrogen, #PHC9501)). Cells were grown for 7 days to induce full differentiation to iPSC macrophages. Both parental (TREM2 expressing) and isogenic TREM2 KO iPSC macrophages were plated to test for specificity of peptide binding. Following differentiation, cells were stimulated for 5 mins with either the control TREM2 activating antibody (R&D systems, #AF1828), a human IgG control (R&D systems, #AB-108-C), or a 10 point CRC of bicyclic peptide (serial 2 fold dilutions from a starting concentration of 100 μM). Following stimulation the media was removed, and cells were lysed in 50 μl lysis buffer (supplied with the kit) per well. Cells were incubated in LB3 for 30 mins with shaking at room temperature. Following lysis, 16 μl of sample was removed and added to a white 384 well plate (ProxiPlate-384 Plus (Perkin Elmer, #6008280)) and 4 μl of pre-mixed antibody solution was added to each well of the plate. The plate was incubated overnight at room temperature, and the following day, […] was measured at 665 nm and 620 nm using a Pherastar FSX. The same cell lysate was used to assess total and phosphorylated SYK, to enable the generation of a ratio of phosphorylated SYK in each sample.
A general note: In TR-FRET formats the signal depends on donor and acceptor labels being close together.

The target in assay [1] is TREM2 extracellular domain (ECD) (residues 19-131, C-terminally biotinylated, deglycosylated or glycosylated) (Homo sapiens, UniProt Q9NZC2). Put plainly: biochemical. The settings on record: Human BLI (Kd; nM) (deglycosylated), deglycosylated human TREM2 ECD, steady-state KD, 25° C.
Procedure: Bio-layer interferometry was performed on an Octet RED384® system (Sartorius) at 25° C. in a buffer containing 50 mM HEPES (pH 7.5), 150 mM NaCl and 0.1% Tween. TREM2 extracellular domain (ECD) (residues 19-131, C-terminally biotinylated, deglycosylated or glycosylated) was loaded onto Superstreptavidin biosensors (SSA, 18-5070, Sartorius) at 0.0125 mg/ml for 300 s. Bicycle peptides (10 mM in DMSO) were dispensed into 384-Well Tilted-Bottom Plates (18-5076, Sartorius) using an Echo liquid handler giving a final DMSO concentration of 0.125% in all wells including control wells. Association of defined concentrations of bicyclic peptide (0-12.5 μM, 1:2 dilutions for 7 points) was recorded over 120 s followed by dissociation in buffer over 120 s. Reference wells containing no bicycle peptides and reference sensors loaded with an unrelated protein (His-tagged MLLT3a) were subjected to the same assay protocol and double reference subtraction was used for processing to account for non-specific binding. Traces were analysed using Octet Software (Version 11.0). Association and dissociation curves were globally fit and the response at equilibrium (Req) plotted against concentration to obtain steady-state KD values.
For assay [2], the target named is TREM2 extracellular domain (ECD). The assay can be described thus: Bio-Layer Interferometry (BLI) direct binding assay, cyno. The settings on record: Table 4B. Here is the method:
Traces were analysed using Octet Software (Version 11.0).

Molecules are shown by their SMILES. *1 amine or outer side, *2 acyl side, *3 side chain or, on linkers, in order; H or OH if unused. Where a SMILES comes first, the peptide text is derived from it. Bridges are numbered along the chain shown (N, C = ends). [ ]: non-standard residue; d: D form. TATA = O=C(CC[*:1])N1CN(C(=O)CC[*:2])CN(C(=O)CC[*:3])C1; Phe(4-Me) = Cc1ccc(C[C@H](N)C(=O)O)cc1; 1Nal = N[C@@H](Cc1cccc2ccccc12)C(=O)O; 2Nal = N[C@@H](Cc1ccc2ccccc2c1)C(=O)O; hPhe = N[C@@H](CCc1ccccc1)C(=O)O; NMeA = CN[C@@H](C)C(=O)O

Consider `CC(=O)N[C@H]1CSCCC(=O)N2CN3CN(C2)C(=O)CCSC[C@H](NC(=O)[C@H](Cc2ccc(O)cc2)NC(=O)[C@H](CCC(=O)O)NC(=O)[C@H](CO)NC1=O)C(=O)N[C@@H](Cc1ccccc1)C(=O)N[C@@H](Cc1cccc2ccccc12)C(=O)N1CCC[C@H]1C(=O)N[C@@H](Cc1ccccc1)C(=O)N[C@@H](Cc1ccc(O)cc1)C(=O)N[C@@H](C)C(=O)N[C@H](C(N)=O)CSCCC3=O` [BCY19294, Ac-(SEQ ID NO: 32)] (Ac-CSEYCF[1Nal]PFYAC-NH2; linker 1-5-12 via TATA), for which the EC50 on TREM2 receptor is under 3.4 µM. Besides, in assay [1] (Table 4A), the Kd was determined as 1500 nM.
In the case of `CC(=O)N[C@H]1CSCCC(=O)N2CN3CN(C2)C(=O)CCSC[C@H](NC(=O)[C@H](Cc2ccc(O)cc2)NC(=O)[C@H](CCC(=O)O)NC(=O)[C@H](CO)NC1=O)C(=O)N[C@@H](Cc1ccccc1)C(=O)N[C@@H](Cc1ccc2ccccc2c1)C(=O)N1CCC[C@H]1C(=O)N[C@@H](Cc1ccccc1)C(=O)N[C@@H](Cc1ccc(O)cc1)C(=O)N[C@@H](C)C(=O)N[C@H](C(N)=O)CSCCC3=O` [BCY19296, Ac-(SEQ ID NO: 33)] (Ac-CSEYCF[2Nal]PFYAC-NH2; linker 1-5-12 via TATA; C-terminus assumed), on TREM2 receptor, the EC50 was under 3.4 µM. In assay [1] (Table 4A), this molecule yielded a dissociation constant (Kd) of 2700 nM.
For the molecule `CC(=O)N[C@H]1CSCCC(=O)N2CN3CN(C2)C(=O)CCSC[C@H](NC(=O)[C@H](Cc2ccc(O)cc2)NC(=O)[C@H](CCC(=O)O)NC(=O)[C@H](CO)NC1=O)C(=O)N[C@@H](Cc1ccc(C)cc1)C(=O)N[C@@H](Cc1c[nH]c2ccccc12)C(=O)N1CCC[C@H]1C(=O)N[C@@H](Cc1ccccc1)C(=O)N[C@@H](Cc1ccc(O)cc1)C(=O)N[C@@H](C)C(=O)N[C@H](C(N)=O)CSCCC3=O` [BCY19298, Ac-(SEQ ID NO: 30)] (Ac-CSEYC[Phe(4-Me)]WPFYAC-NH2; linker 1-5-12 via TATA; C-terminus assumed), the EC50 on TREM2 receptor is under 3.4 µM.
For the molecule `CC(=O)N[C@H]1CSCCC(=O)N2CN3CN(C2)C(=O)CCSC[C@H](NC(=O)[C@H](Cc2ccc(O)cc2)NC(=O)[C@H](CCC(=O)O)NC(=O)[C@H](CO)NC1=O)C(=O)N[C@@H](Cc1ccccc1)C(=O)N[C@@H](Cc1c[nH]c2ccccc12)C(=O)N1CCC[C@H]1C(=O)N[C@@H](Cc1ccc(C)cc1)C(=O)N[C@@H](Cc1ccc(O)cc1)C(=O)N[C@@H](C)C(=O)N[C@H](C(N)=O)CSCCC3=O` [BCY19299, Ac-(SEQ ID NO: 36)] (Ac-CSEYCFWP[Phe(4-Me)]YAC-NH2; linker 1-5-12 via TATA; C-terminus assumed), the EC50 at TREM2 receptor was over 10 µM. In addition, in assay [1] (Table 4A), the Kd worked out at 18000 nM.
On to `CC(=O)N[C@H]1CSCCC(=O)N2CN3CN(C2)C(=O)CCSC[C@H](NC(=O)[C@H](Cc2ccc(O)cc2)NC(=O)[C@H](CCC(=O)O)NC(=O)[C@H](CO)NC1=O)C(=O)N[C@@H](Cc1ccccc1)C(=O)N[C@@H](Cc1c[nH]c2ccccc12)C(=O)N1CCC[C@H]1C(=O)N[C@@H](CCc1ccccc1)C(=O)N[C@@H](Cc1ccc(O)cc1)C(=O)N[C@@H](C)C(=O)N[C@H](C(N)=O)CSCCC3=O` [BCY19301, Ac-(SEQ ID NO: 35)] (Ac-CSEYCFWP[hPhe]YAC-NH2; linker 1-5-12 via TATA), for which the EC50 at TREM2 receptor was under 3.4 µM.
On to `CC(=O)N[C@H]1CSCCC(=O)N2CN3CN(C2)C(=O)CCSC[C@H](NC(=O)[C@H](Cc2ccc(O)cc2)NC(=O)[C@H](CCC(=O)O)NC(=O)[C@H](CO)NC1=O)C(=O)N[C@@H](Cc1ccccc1)C(=O)N[C@@H](Cc1c[nH]c2ccccc12)C(=O)N(C)[C@@H](C)C(=O)N[C@@H](Cc1ccccc1)C(=O)N[C@@H](Cc1ccc(O)cc1)C(=O)N[C@@H](C)C(=O)N[C@H](C(N)=O)CSCCC3=O` [BCY19303, Ac-(SEQ ID NO: 34)] (Ac-CSEYCFW[NMeA]FYAC-NH2; linker 1-5-12 via TATA), for which, at TREM2 receptor, the EC50 was under 3.4 µM.
For the molecule `C[C@H](N)C(=O)N[C@H]1CSCCC(=O)N2CN3CN(C2)C(=O)CCSC[C@H](NC(=O)[C@H](Cc2ccc(O)cc2)NC(=O)[C@H](CC(N)=O)NC(=O)[C@H]([C@@H](C)O)NC1=O)C(=O)N[C@@H](Cc1ccccc1)C(=O)N[C@@H](Cc1c[nH]c2ccccc12)C(=O)N1CCC[C@H]1C(=O)N[C@@H](Cc1ccccc1)C(=O)N[C@@H](CCC(N)=O)C(=O)N[C@@H](Cc1ccc(O)cc1)C(=O)N[C@H](C(=O)N[C@@H](C)C(N)=O)CSCCC3=O` [BCY19779, A-(SEQ ID NO: 18)-A] (H-ACTNYCFWPFQYCA-NH2; linker 2-6-13 via TATA), on TREM2 receptor, the EC50 was determined as 2.5 µM. The Kd in assay [1] (Table 4A) was 920 nM.
`CC(C)C[C@@H]1NC(=O)[C@H](Cc2ccc(O)cc2)NC(=O)[C@H](Cc2ccccc2)NC(=O)[C@@H]2CCCN2C(=O)[C@H](Cc2c[nH]c3ccccc23)NC(=O)[C@H](Cc2ccccc2)NC(=O)[C@@H]2CSCCC(=O)N3CN(CN(C3)C(=O)CCSC[C@@H](C(=O)N[C@@H](C)C(N)=O)NC1=O)C(=O)CCSC[C@H](NC(=O)[C@H](C)N)C(=O)N[C@@H]([C@@H](C)O)C(=O)N[C@@H](CC(N)=O)C(=O)N[C@@H](Cc1ccc(O)cc1)C(=O)N2` [BCY19782, A-(SEQ ID NO: 21)-A] (H-ACTNYCFWPFYLCA-NH2; linker 2-6-13 via TATA): the EC50 on TREM2 receptor turned out to be 3.8 µM. This molecule also yielded a Kd in assay [1] (Table 4A) of 1400 nM.
Take `C[C@H](N)C(=O)N[C@H]1CSCCC(=O)N2CN3CN(C2)C(=O)CCSC[C@H](NC(=O)[C@H](Cc2ccc(O)cc2)NC(=O)[C@H](CCC(=O)O)NC(=O)[C@H](CO)NC1=O)C(=O)N[C@@H](Cc1ccccc1)C(=O)N[C@@H](Cc1c[nH]c2ccccc12)C(=O)N1CCC[C@H]1C(=O)N[C@@H](Cc1ccccc1)C(=O)N[C@@H](CCC(N)=O)C(=O)N[C@@H](Cc1ccc(O)cc1)C(=O)N[C@H](C(=O)N[C@@H](C)C(N)=O)CSCCC3=O` [BCY19784, A-(SEQ ID NO: 23)-A] (H-ACSEYCFWPFQYCA-NH2; linker 2-6-13 via TATA): the EC50 at TREM2 receptor turned out to be 1.8 µM.
For the molecule `CC(=O)N[C@H]1CSCCC(=O)N2CN3CN(C2)C(=O)CCSC[C@H](NC(=O)[C@H](Cc2ccc(O)cc2)NC(=O)[C@H](CCC(=O)O)NC(=O)[C@H](CO)NC1=O)C(=O)N[C@@H](Cc1ccccc1)C(=O)N[C@@H](Cc1c[nH]c2ccccc12)C(=O)N1CCC[C@H]1C(=O)N[C@@H](Cc1ccccc1)C(=O)N[C@@H](Cc1ccc(O)cc1)C(=O)N[C@@H](CCC(N)=O)C(=O)N[C@H](C(N)=O)CSCCC3=O` [BCY20572, Ac-(SEQ ID NO: 98)] (Ac-CSEYCFWPFYQC-NH2; linker 1-5-12 via TATA), binding in assay [1] (Table 4B) was put at a Kd of 1060 nM.
Molecule `CC(=O)N[C@H]1CSCCC(=O)N2CN3CN(C2)C(=O)CCSC[C@H](NC(=O)[C@H](Cc2ccc(O)cc2)NC(=O)[C@H](CCC(=O)O)NC(=O)[C@H](CO)NC1=O)C(=O)N[C@@H](Cc1ccccc1)C(=O)N[C@@H](Cc1c[nH]c2ccccc12)C(=O)N1CCC[C@H]1C(=O)N[C@@H](Cc1ccccc1)C(=O)N[C@@H](Cc1ccc(O)cc1)C(=O)N[C@@H](Cc1ccccc1)C(=O)N[C@H](C(N)=O)CSCCC3=O` [BCY20576, Ac-(SEQ ID NO: 102)] (Ac-CSEYCFWPFYFC-NH2; linker 1-5-12 via TATA) returned a Kd in assay [1] (Table 4B) of 1350 nM.
`CC(=O)N[C@H]1CSCCC(=O)N2CN3CN(C2)C(=O)CCSC[C@H](NC(=O)[C@H](Cc2ccc(O)cc2)NC(=O)[C@H](CCC(=O)O)NC(=O)[C@H](CO)NC1=O)C(=O)N[C@@H](Cc1ccccc1)C(=O)N[C@@H](Cc1c[nH]c2ccccc12)C(=O)N1CCC[C@H]1C(=O)N[C@@H](Cc1cccc2ccccc12)C(=O)N[C@@H](Cc1ccc(O)cc1)C(=O)N[C@@H](C)C(=O)N[C@H](C(N)=O)CSCCC3=O` [BCY20722, Ac-(SEQ ID NO: 46)] (Ac-CSEYCFWP[1Nal]YAC-NH2; linker 1-5-12 via TATA): the affinity in assay [2], expressed as Kd, was 3600 nM.

In general, Kd refers to the concentration at which binding is half-saturated. Read a low Kd as a tighter complex.
